Here are results for 8 cell lines from the supplement of paper PMC10307832.

What all share (experiment): relative viability (nuclei count vs DMSO), 5 days (fraction); higher = more cells survive
Compound in the assay “Selisistat + Decitabine”: C1CC(C2=C(C1)C3=C(N2)C=CC(=C3)Cl)C(=O)N [Selisistat] + Nc1ncn([C@H]2C[C@H](O)[C@@H](CO)O2)c(=O)n1 [Decitabine] (partner 2 µM)
The essentials:
(§1)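 Nuclei were stained with Hoechst during a one-step fixation (final 0.05% Triton X-100, 1% formaldehyde, 1 ug/ml Hoechst) carried out 5 days after dosing, then counted on 4× images. The cells, lung cancer lines in 1536-well plates, had been dosed by pin tool the day after seeding with one drug alone or a fixed anchor-drug dose plus five library-drug doses (not always all listed) in √10 steps. Relative viability is the nuclei count in treated wells divided by that in vehicle wells, and each value is the median of duplicate plates.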

Compound in the assay “Selisistat + Luminespib”: C1CC(C2=C(C1)C3=C(N2)C=CC(=C3)Cl)C(=O)N [Selisistat] + CCNC(=O)c1noc(-c2cc(C(C)C)c(O)cc2O)c1-c1ccc(CN2CCOCC2)cc1 [Luminespib] (partner 0.01 µM)
The gist of the method: as §1

Compound in the assay “Selisistat + Phenformin”: C1CC(C2=C(C1)C3=C(N2)C=CC(=C3)Cl)C(=O)N [Selisistat] + N=C(N)NC(=N)NCCc1ccccc1 [Phenformin] (partner 250 µM)
The essentials: as §1

Compound in the assay “Serdemetan + Linsitinib”: c1ccc2c(CCNc3ccc(Nc4ccncc4)cc3)c[nH]c2c1 [Serdemetan] + C[C@]1(O)C[C@@H](c2nc(-c3ccc4ccc(-c5ccccc5)nc4c3)c3c(N)nccn32)C1 [Linsitinib] (partner 1 µM)
The essentials:
as §1

EKVX: the relative viability was found to be 0.415 with Selisistat + Decitabine (first compound 0.4 µM); 0.355 with Selisistat + Decitabine (first compound 1.265 µM); 0.339 in the assay with Selisistat + Decitabine (first compound 4 µM); 0.367 with Selisistat + Decitabine (first compound 12.65 µM); 0.368 in the assay with Selisistat + Decitabine (first compound 40 µM); 0.844 with Selisistat + Luminespib (first compound 0.4 µM). Further, the relative viability was 0.894 with Selisistat + Luminespib (first compound 1.265 µM); 0.814 in the assay with Selisistat + Luminespib (first compound 4 µM); 0.934 with Selisistat + Luminespib (first compound 12.65 µM); 0.877 in the assay with Selisistat + Luminespib (first compound 40 µM); 0.221 in the assay with Selisistat + Phenformin (first compound 0.4 µM); 0.243 in the assay with Selisistat + Phenformin (first compound 1.265 µM). The relative viability with Selisistat + Phenformin (first compound 4 µM) was 0.222; with Selisistat + Phenformin (first compound 12.65 µM), 0.23; with Selisistat + Phenformin (first compound 40 µM), 0.249; with Serdemetan + Linsitinib (first compound 0.04 µM) it was 0.997; in the assay with Serdemetan + Linsitinib (first compound 0.1265 µM), 0.971; with Serdemetan + Linsitinib (first compound 0.4 µM) it was 0.861. Besides, the relative viability turned out to be 0.968 in the assay with Serdemetan + Linsitinib (first compound 1.265 µM) and 0.639 in the assay with Serdemetan + Linsitinib (first compound 4 µM).

With LXF-289, the relative viability is 0.425 with Selisistat + Decitabine (first compound 0.4 µM); 0.379 with Selisistat + Decitabine (first compound 1.265 µM); 0.337 with Selisistat + Decitabine (first compound 4 µM); 0.355 with Selisistat + Decitabine (first compound 12.65 µM); 0.431 in the assay with Selisistat + Decitabine (first compound 40 µM); 0.601 with Selisistat + Luminespib (first compound 0.4 µM). The relative viability in the assay with Selisistat + Luminespib (first compound 1.265 µM) turned out to be 0.565; with Selisistat + Luminespib (first compound 4 µM), 0.696; in the assay with Selisistat + Luminespib (first compound 12.65 µM), 0.686; with Selisistat + Luminespib (first compound 40 µM), 0.673; with Selisistat + Phenformin (first compound 0.4 µM), 0.503; with Selisistat + Phenformin (first compound 1.265 µM), 0.517. Also, the relative viability with Selisistat + Phenformin (first compound 4 µM) came to 0.475; with Selisistat + Phenformin (first compound 12.65 µM) it was 0.499; with Selisistat + Phenformin (first compound 40 µM), 0.538; with Serdemetan + Linsitinib (first compound 0.04 µM) it was 0.953; with Serdemetan + Linsitinib (first compound 0.1265 µM), 0.95; with Serdemetan + Linsitinib (first compound 0.4 µM), 0.863. For the same cell line, the relative viability with Serdemetan + Linsitinib (first compound 1.265 µM) amounted to 0.785; with Serdemetan + Linsitinib (first compound 4 µM), 0.765.

For ABC-1, the relative viability with Selisistat + Decitabine (first compound 0.4 µM) was 0.881; in the assay with Selisistat + Decitabine (first compound 1.265 µM) it was 1.02; with Selisistat + Decitabine (first compound 12.65 µM), 0.86; in the assay with Selisistat + Decitabine (first compound 40 µM), 1.08; in the assay with Selisistat + Luminespib (first compound 0.4 µM) it was 0.477; with Selisistat + Luminespib (first compound 1.265 µM), 0.483. Also, the relative viability with Selisistat + Luminespib (first compound 40 µM) came out at 0.627; in the assay with Selisistat + Phenformin (first compound 0.4 µM), 0.221; with Selisistat + Phenformin (first compound 1.265 µM), 0.213; with Selisistat + Phenformin (first compound 4 µM), 0.265; with Selisistat + Phenformin (first compound 12.65 µM), 0.265; in the assay with Selisistat + Phenformin (first compound 40 µM) it was 0.263. In addition, the relative viability was 0.85 in the assay with Serdemetan + Linsitinib (first compound 0.04 µM); 0.87 in the assay with Serdemetan + Linsitinib (first compound 0.1265 µM); 0.738 with Serdemetan + Linsitinib (first compound 0.4 µM); 0.6 in the assay with Serdemetan + Linsitinib (first compound 1.265 µM); 0.489 with Serdemetan + Linsitinib (first compound 4 µM).

For the cell line NCI-H650, the relative viability amounted to 0.407 with Selisistat + Decitabine (first compound 0.4 µM); 0.293 with Selisistat + Decitabine (first compound 1.265 µM); 0.286 with Selisistat + Decitabine (first compound 4 µM); 0.324 with Selisistat + Decitabine (first compound 12.65 µM); 0.33 in the assay with Selisistat + Decitabine (first compound 40 µM); 0.874 with Selisistat + Luminespib (first compound 0.4 µM). Moreover, the relative viability was 0.772 with Selisistat + Luminespib (first compound 1.265 µM); 0.894 with Selisistat + Luminespib (first compound 4 µM); 0.77 with Selisistat + Luminespib (first compound 12.65 µM); 0.665 with Selisistat + Luminespib (first compound 40 µM); 0.499 with Selisistat + Phenformin (first compound 0.4 µM); 0.432 with Selisistat + Phenformin (first compound 1.265 µM). Also, the relative viability in the assay with Selisistat + Phenformin (first compound 4 µM) stood at 0.441; in the assay with Selisistat + Phenformin (first compound 12.65 µM), 0.432; with Selisistat + Phenformin (first compound 40 µM), 0.485; in the assay with Serdemetan + Linsitinib (first compound 0.04 µM), 0.681; with Serdemetan + Linsitinib (first compound 0.1265 µM) it was 0.922; with Serdemetan + Linsitinib (first compound 0.4 µM), 0.883. Further, the relative viability with Serdemetan + Linsitinib (first compound 1.265 µM) is 0.737; in the assay with Serdemetan + Linsitinib (first compound 4 µM), 0.688.

Consider NCI-H2085, for which the relative viability in the assay with Selisistat + Decitabine (first compound 0.4 µM) was 0.595; with Selisistat + Decitabine (first compound 1.265 µM), 0.551; with Selisistat + Decitabine (first compound 4 µM) it was 0.577; with Selisistat + Decitabine (first compound 12.65 µM), 0.625; with Selisistat + Decitabine (first compound 40 µM) it was 0.588; in the assay with Selisistat + Luminespib (first compound 0.4 µM) it was 0.569. Moreover, the relative viability is 0.406 with Selisistat + Luminespib (first compound 1.265 µM); 0.47 in the assay with Selisistat + Luminespib (first compound 4 µM); 0.452 in the assay with Selisistat + Luminespib (first compound 12.65 µM); 0.4 in the assay with Selisistat + Luminespib (first compound 40 µM); 0.824 with Selisistat + Phenformin (first compound 0.4 µM); 0.717 with Selisistat + Phenformin (first compound 1.265 µM). Further, the relative viability with Selisistat + Phenformin (first compound 4 µM) turned out to be 0.472; with Selisistat + Phenformin (first compound 12.65 µM) it was 0.735; with Selisistat + Phenformin (first compound 40 µM) it was 0.728; with Serdemetan + Linsitinib (first compound 0.04 µM), 0.939; in the assay with Serdemetan + Linsitinib (first compound 0.1265 µM), 0.901; with Serdemetan + Linsitinib (first compound 0.4 µM), 0.836. The relative viability was determined as 0.621 with Serdemetan + Linsitinib (first compound 1.265 µM) and 0.581 with Serdemetan + Linsitinib (first compound 4 µM).

Turning to NCI-H1793, the relative viability in the assay with Selisistat + Decitabine (first compound 0.4 µM) was 0.489; with Selisistat + Decitabine (first compound 1.265 µM), 0.459; with Selisistat + Decitabine (first compound 12.65 µM), 0.552; with Selisistat + Decitabine (first compound 40 µM), 0.616; with Selisistat + Luminespib (first compound 0.4 µM), 0.185; with Selisistat + Luminespib (first compound 1.265 µM), 0.166. Besides, the relative viability with Selisistat + Luminespib (first compound 12.65 µM) stood at 0.217; in the assay with Selisistat + Luminespib (first compound 40 µM), 0.234; in the assay with Selisistat + Phenformin (first compound 0.4 µM), 0.398; with Selisistat + Phenformin (first compound 1.265 µM), 0.366; in the assay with Selisistat + Phenformin (first compound 12.65 µM), 0.303; in the assay with Selisistat + Phenformin (first compound 40 µM) it was 0.388. Further, the relative viability with Serdemetan + Linsitinib (first compound 0.04 µM) was 0.978; in the assay with Serdemetan + Linsitinib (first compound 0.1265 µM), 0.834; with Serdemetan + Linsitinib (first compound 0.4 µM), 0.574; with Serdemetan + Linsitinib (first compound 1.265 µM), 0.525; with Serdemetan + Linsitinib (first compound 4 µM), 0.336.

For the cell line LC-2-ad, the relative viability is 0.909 with Selisistat + Decitabine (first compound 0.4 µM); 0.797 with Selisistat + Decitabine (first compound 1.265 µM); 0.764 in the assay with Selisistat + Decitabine (first compound 4 µM); 0.821 in the assay with Selisistat + Decitabine (first compound 12.65 µM); 0.775 in the assay with Selisistat + Decitabine (first compound 40 µM); 1.13 in the assay with Selisistat + Luminespib (first compound 0.4 µM). Also, the relative viability is 1.02 with Selisistat + Luminespib (first compound 4 µM); 1 in the assay with Selisistat + Luminespib (first compound 12.65 µM); 1.06 with Selisistat + Luminespib (first compound 40 µM); 0.625 in the assay with Selisistat + Phenformin (first compound 0.4 µM); 0.437 with Selisistat + Phenformin (first compound 4 µM); 0.582 in the assay with Selisistat + Phenformin (first compound 12.65 µM). The relative viability with Selisistat + Phenformin (first compound 40 µM) was found to be 0.632; in the assay with Serdemetan + Linsitinib (first compound 0.04 µM) it was 0.908; with Serdemetan + Linsitinib (first compound 0.1265 µM), 0.805; with Serdemetan + Linsitinib (first compound 0.4 µM), 0.857; with Serdemetan + Linsitinib (first compound 4 µM), 0.722.

Turning to COR-L 105, the relative viability came to 0.664 with Selisistat + Decitabine (first compound 0.4 µM); 0.731 with Selisistat + Decitabine (first compound 1.265 µM); 0.587 with Selisistat + Decitabine (first compound 4 µM); 0.635 in the assay with Selisistat + Decitabine (first compound 12.65 µM); 0.598 in the assay with Selisistat + Decitabine (first compound 40 µM); 0.464 in the assay with Selisistat + Luminespib (first compound 0.4 µM). For the same cell line, the relative viability worked out at 0.608 in the assay with Selisistat + Luminespib (first compound 1.265 µM); 0.909 with Selisistat + Luminespib (first compound 12.65 µM); 0.775 in the assay with Selisistat + Luminespib (first compound 40 µM); 0.479 with Selisistat + Phenformin (first compound 0.4 µM); 0.439 with Selisistat + Phenformin (first compound 1.265 µM); 0.371 with Selisistat + Phenformin (first compound 12.65 µM). Also, the relative viability was 0.421 in the assay with Selisistat + Phenformin (first compound 40 µM); 0.86 with Serdemetan + Linsitinib (first compound 0.04 µM); 1.14 in the assay with Serdemetan + Linsitinib (first compound 0.1265 µM); 0.847 in the assay with Serdemetan + Linsitinib (first compound 0.4 µM); 1.04 with Serdemetan + Linsitinib (first compound 1.265 µM); 0.845 with Serdemetan + Linsitinib (first compound 4 µM).
